According to patent US8598344B2, “CDKI pathway inhibitors and uses thereof” (Senex Biotechnology, priority 2009, dated 2013):

Key:
[1] = test system: irradiated, senescent WI38 fibroblasts; assay: Paracrine antiapoptotic activity of irradiated, senescent WI38 fibroblasts (survival of C8 cells in low serum); type: cell-based; conditions: C8 cell luciferase, 0.5% serum
Description: As discussed by Roninson (Cancer Lett. 179, 1-14, 2002), all the treatments known to induce the production of tumor-promoting secreted factors by cancer-associated stromal fibroblasts activate the CDKI pathway, including exposure to ionizing radiation and the induction of senescence. Since this pathway is the target of compounds according to the invention, such compounds may be the first agents to target tumor-supporting activities of cancer-associated fibroblasts. Some of the fibroblast-activating treatments include exposure to ionizing radiation and the induction of senescence through various means (Krtolica et al., Proc. Natl. Acad. Sci. USA 98, 12072, 2001). We have adopted a 96-well assay for anti-apoptotic activity that we have previously used with p21-expressing fibrosarcoma cells (Chang et al., Proc. Natl. Acad. Sci. USA 97, 4291-4296, 2000), to measure a tumor-promoting activity of normal proliferating fibroblasts and fibroblasts exposed to ionizing radiation and consequently developing the senescent phenotype. In this assay, WI38 fibroblasts are irradiated with 10 Gy using an MDS Nordion Gammacell 40 irradiator, or left unirradiated. […] On day 7, cells are lysed and the amount of luciferase activity associated with C8 cells is determined. […]

[2] = test system: HUVECs; assay: HUVEC proliferation, 3-day MTT assay; type: cell-based, human
[3] = test system: DLD1 cells; assay: Colon carcinoma cell proliferation, FACS count of live cells; type: cell-based, human; conditions: 72 hrs; read-out: IC50, growth inhibition
Description: (§1) Inhibition of β-catenin, which is positively regulated by CDK8, was reported to inhibit proliferation of some colon carcinoma cell lines (Firestein et al., 2008). We have therefore determined the ability of compound 1 to inhibit the proliferation of several colon carcinoma cell lines, including human DLD1, HCT116, SW480 and murine C26. This analysis waqs carried out by incubating cells for 72 hrs in the presence of 0, 2.5, 5 or 10 μM compound 1, followed by FACS measurement of the number of live cells, as defined by the lack of uptake of membrane-impermeable dye propidium iodide.

[4] = test system: HCT116; assay: as above; type: cell-based, human; conditions: 72 hrs, 2.5, 5 or 10 μM
Description: as §1

[5] = test system: SW480; assay: as above; type: cell-based, human; conditions: 72 hrs, 2.5, 5 or 10 μM
Description: as §1

[6] = biological target: T1, ALK (Homo sapiens, UniProt Q9UM73); assay: KinomeScan competition binding assay; conditions: 10 μM compound
T1 construct: purchased KinomeScan, a division of Ambit Biosciences
T1 sequence (Q9UM73 19-1620): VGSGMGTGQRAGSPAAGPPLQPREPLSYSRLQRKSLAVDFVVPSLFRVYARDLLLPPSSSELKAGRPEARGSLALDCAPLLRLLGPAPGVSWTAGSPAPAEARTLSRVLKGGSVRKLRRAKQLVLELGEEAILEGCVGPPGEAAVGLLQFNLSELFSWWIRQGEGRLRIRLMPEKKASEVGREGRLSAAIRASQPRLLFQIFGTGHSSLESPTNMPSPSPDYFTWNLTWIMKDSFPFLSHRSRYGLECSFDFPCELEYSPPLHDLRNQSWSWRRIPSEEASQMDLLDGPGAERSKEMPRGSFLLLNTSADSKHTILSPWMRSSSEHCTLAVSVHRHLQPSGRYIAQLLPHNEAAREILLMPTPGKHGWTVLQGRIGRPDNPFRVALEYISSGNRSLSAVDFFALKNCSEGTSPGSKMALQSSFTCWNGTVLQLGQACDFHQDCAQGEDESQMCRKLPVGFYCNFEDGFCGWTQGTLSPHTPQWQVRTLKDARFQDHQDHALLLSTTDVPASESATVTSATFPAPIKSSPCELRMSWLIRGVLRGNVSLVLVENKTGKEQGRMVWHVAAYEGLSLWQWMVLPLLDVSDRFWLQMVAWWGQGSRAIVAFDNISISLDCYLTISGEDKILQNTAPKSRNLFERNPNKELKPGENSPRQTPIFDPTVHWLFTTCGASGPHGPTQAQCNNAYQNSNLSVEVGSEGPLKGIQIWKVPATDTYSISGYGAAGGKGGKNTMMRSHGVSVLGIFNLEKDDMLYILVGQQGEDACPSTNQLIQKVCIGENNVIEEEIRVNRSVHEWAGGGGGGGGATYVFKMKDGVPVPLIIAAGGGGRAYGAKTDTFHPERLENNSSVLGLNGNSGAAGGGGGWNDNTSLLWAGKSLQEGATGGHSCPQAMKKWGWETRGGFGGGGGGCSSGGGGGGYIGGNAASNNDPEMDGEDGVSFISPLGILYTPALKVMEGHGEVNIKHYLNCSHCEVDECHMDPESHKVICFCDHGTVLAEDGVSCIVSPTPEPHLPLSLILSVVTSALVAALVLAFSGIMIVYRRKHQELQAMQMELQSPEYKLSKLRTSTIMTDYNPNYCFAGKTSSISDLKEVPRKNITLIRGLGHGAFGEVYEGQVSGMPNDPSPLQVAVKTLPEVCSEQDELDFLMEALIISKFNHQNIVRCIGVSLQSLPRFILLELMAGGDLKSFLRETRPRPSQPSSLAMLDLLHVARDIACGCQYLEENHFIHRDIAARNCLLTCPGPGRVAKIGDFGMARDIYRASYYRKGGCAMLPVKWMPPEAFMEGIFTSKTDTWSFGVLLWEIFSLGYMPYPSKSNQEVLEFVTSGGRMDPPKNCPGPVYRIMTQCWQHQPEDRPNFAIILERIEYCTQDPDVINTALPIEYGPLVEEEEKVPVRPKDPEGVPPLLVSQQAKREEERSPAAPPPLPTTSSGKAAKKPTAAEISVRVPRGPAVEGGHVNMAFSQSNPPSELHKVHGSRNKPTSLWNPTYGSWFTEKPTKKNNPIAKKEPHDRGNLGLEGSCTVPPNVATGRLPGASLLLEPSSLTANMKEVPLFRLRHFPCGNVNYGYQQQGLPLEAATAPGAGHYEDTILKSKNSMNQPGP
Description: (§2) The KINOMEscan assay has been described in detail in Fabian et al., Nat. Biotechnol. 23: 329 (2005) and Karaman et al., Nat. Biotechnol. 26: 127 (2008).
(§3) The KinomeScan assay is based on a competition binding assay that quantitatively measures the ability of a compound to compete with an immobilized, ATP site directed ligand. The assay is performed by combining three components: DNA-tagged kinase; immobilized ligand; and a test compound. The ability of the test compound to compete with the immobilized ligand is measured via quantitative PCR of the DNA tag.

[7] = biological target: T2, MET (Homo sapiens, UniProt P08581); assay: KinomeScan competition binding assay; conditions: 10 μM compound
T2 construct: purchased KinomeScan, a division of Ambit Biosciences
T2 sequence (P08581 25-1390): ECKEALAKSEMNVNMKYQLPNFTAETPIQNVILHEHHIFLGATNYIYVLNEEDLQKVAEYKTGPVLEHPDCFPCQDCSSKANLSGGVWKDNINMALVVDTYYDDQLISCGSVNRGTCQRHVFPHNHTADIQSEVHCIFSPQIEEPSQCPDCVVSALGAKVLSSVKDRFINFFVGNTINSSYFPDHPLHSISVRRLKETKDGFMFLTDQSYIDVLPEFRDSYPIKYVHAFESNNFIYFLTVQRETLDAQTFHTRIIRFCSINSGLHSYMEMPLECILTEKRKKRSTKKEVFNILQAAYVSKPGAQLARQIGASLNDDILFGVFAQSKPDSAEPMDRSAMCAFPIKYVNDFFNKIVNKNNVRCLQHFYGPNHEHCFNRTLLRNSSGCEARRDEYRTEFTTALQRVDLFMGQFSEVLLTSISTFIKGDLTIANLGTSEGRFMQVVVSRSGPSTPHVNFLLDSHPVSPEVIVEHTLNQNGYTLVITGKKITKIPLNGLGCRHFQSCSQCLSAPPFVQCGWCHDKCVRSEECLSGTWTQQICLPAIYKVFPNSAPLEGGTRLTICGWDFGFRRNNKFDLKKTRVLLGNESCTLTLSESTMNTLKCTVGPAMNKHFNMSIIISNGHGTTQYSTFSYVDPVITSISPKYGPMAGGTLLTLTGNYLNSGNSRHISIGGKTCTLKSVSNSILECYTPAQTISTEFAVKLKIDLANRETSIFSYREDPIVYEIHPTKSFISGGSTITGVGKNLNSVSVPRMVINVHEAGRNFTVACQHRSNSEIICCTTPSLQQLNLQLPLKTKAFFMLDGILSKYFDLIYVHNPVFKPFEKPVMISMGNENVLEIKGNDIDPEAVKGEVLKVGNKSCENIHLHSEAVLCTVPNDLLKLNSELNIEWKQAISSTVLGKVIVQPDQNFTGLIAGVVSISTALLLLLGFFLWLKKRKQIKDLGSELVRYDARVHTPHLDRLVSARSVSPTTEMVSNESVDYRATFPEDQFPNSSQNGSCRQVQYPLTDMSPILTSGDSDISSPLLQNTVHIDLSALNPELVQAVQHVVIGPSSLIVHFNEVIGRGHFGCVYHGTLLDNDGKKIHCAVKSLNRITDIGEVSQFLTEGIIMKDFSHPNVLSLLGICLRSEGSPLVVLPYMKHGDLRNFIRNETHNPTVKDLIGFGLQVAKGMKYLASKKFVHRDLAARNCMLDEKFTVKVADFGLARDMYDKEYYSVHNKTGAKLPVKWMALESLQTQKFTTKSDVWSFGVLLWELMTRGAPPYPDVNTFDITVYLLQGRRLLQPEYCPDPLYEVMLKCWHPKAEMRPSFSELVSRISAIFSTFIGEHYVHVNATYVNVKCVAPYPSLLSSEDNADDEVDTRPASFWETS
Description: as §2, §3

[8] = biological target: T3, PIM2 (Homo sapiens, UniProt Q9P1W9); assay: KinomeScan competition binding assay; conditions: 10 μM compound
T3 construct: purchased KinomeScan, a division of Ambit Biosciences
T3 sequence (Q9P1W9 whole entry): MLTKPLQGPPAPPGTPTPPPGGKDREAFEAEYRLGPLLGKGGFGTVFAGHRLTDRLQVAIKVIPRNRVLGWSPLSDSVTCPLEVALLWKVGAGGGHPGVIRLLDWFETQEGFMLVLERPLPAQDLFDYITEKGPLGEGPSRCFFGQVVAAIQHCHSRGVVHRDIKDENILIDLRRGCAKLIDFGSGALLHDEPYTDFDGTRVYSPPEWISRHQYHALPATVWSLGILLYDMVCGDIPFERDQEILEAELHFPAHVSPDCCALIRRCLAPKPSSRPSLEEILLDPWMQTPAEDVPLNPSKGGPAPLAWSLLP
Description: as §2, §3

[9] = biological target: T4, PKACa (Homo sapiens, UniProt P17612); assay: KinomeScan competition binding assay; conditions: 10 μM compound
T4 construct: purchased KinomeScan, a division of Ambit Biosciences
Description: as §2, §3

[10] = biological target: T5, PKACb (Homo sapiens, UniProt P22694); assay: KinomeScan competition binding assay; conditions: 10 μM compound
T5 construct: purchased KinomeScan, a division of Ambit Biosciences
Description: as §2, §3

[11] = biological target: T6, RIOK2 (Homo sapiens, UniProt Q9BVS4); assay: KinomeScan competition binding assay; conditions: 10 μM compound
T6 construct: purchased KinomeScan, a division of Ambit Biosciences
Description: as §2, §3

[12] = biological target: T7, ROCK1 (Homo sapiens, UniProt Q13464); assay: KinomeScan competition binding assay; conditions: 10 μM compound
T7 construct: purchased KinomeScan, a division of Ambit Biosciences
T7 sequence (Q13464 whole entry): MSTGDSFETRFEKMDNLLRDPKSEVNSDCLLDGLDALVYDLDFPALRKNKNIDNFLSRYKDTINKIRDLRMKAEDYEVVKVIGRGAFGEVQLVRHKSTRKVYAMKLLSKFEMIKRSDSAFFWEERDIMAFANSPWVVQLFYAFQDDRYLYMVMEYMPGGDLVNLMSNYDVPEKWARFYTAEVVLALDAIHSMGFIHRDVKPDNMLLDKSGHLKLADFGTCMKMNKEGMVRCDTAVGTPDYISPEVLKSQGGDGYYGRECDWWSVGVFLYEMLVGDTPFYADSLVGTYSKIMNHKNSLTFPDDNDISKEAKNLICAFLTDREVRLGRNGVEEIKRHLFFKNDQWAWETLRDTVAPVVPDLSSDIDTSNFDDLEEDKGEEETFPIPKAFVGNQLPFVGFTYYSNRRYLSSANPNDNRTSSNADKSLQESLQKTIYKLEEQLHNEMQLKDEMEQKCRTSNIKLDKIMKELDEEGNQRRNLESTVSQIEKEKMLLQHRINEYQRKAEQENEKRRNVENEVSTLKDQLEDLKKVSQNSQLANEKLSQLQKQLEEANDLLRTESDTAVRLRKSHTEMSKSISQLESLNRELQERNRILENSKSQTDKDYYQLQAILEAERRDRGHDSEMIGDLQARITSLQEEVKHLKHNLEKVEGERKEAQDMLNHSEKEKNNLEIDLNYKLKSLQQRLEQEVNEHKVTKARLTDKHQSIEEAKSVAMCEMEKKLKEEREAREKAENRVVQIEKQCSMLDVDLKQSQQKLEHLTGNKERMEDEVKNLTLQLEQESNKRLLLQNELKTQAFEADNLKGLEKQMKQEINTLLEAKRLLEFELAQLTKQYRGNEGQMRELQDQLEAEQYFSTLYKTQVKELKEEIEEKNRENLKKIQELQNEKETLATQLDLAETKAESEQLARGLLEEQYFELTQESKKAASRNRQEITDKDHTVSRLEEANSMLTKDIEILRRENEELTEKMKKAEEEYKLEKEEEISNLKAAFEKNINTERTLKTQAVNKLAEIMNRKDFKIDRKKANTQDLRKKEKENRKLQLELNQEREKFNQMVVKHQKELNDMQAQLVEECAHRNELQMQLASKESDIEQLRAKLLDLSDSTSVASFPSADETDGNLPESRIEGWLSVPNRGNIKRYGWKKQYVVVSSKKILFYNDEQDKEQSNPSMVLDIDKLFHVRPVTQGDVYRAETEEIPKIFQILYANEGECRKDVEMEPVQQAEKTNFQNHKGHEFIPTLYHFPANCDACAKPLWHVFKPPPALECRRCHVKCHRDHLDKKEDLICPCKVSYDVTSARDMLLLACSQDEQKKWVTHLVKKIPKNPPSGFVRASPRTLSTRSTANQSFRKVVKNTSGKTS
Description: as §2, §3

[13] = biological target: T8, ROS1 (Homo sapiens, UniProt P08922); assay: KinomeScan competition binding assay; conditions: 10 μM compound
T8 construct: purchased KinomeScan, a division of Ambit Biosciences
Description: as §2, §3

[14] = biological target: CDK7 (Homo sapiens, UniProt P50613); assay: KinomeScan competition binding assay; parameters: purchased KinomeScan, a division of Ambit Biosciences; conditions: 10 μM compound
CDK7, sequence (P50613 whole entry): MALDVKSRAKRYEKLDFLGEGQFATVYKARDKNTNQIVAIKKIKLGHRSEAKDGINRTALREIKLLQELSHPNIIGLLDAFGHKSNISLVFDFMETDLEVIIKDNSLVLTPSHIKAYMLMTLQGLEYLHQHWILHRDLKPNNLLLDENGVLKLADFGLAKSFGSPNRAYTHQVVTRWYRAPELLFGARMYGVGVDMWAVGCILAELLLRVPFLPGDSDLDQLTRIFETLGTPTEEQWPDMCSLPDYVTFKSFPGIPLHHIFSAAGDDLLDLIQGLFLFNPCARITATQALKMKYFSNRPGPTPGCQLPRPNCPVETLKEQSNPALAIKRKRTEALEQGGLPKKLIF
Description: This similarity led us to test SNX14 for the ability to inhibit 285 kinases, using the services of KinaseProfiler of Millipore Corporation (285 kinases). […] The KINOMEscan assay has been described in detail in Fabian et al., Nat. Biotechnol. 23: 329 (2005) and Karaman et al., Nat. Biotechnol. 26: 127 (2008).
The KinomeScan assay is based on a competition binding assay that quantitatively measures the ability of a compound to compete with an immobilized, ATP site directed ligand. The assay is performed by combining three components: DNA-tagged kinase; immobilized ligand; and a test compound. The ability of the test compound to compete with the immobilized ligand is measured via quantitative PCR of the DNA tag. […] The CDKs tested by Millipore for inhibition with SNX14 included CDK1, CDK2, CDK3, CDK5, CDK7 and CDK9; none of these were inhibited to less than 49 percent of control (POC) activity. The CDKs tested by KinomeScan for the effect of Compound 1 included CDK2, CDK3, CDK4, CDK5, CDK7, CDK8, CDK9 and CDK19; aside from CDK8 and CDK19, the strongest inhibited CDK was CDK7 (33% POC binding). […] We have also determined the binding constant (Kd) for SNX14, compound 1, compound 20, compound 26, compound 43 and compound 14 in kinase assays for CDK8 and CDK19 (Table 1).

N#Cc1ccc2ncnc(NCCc3ccccc3)c2c1 [compound 1]
decrease of paracrine tumor-promoting (antiapoptotic) effect of irradiated/senescent fibroblasts [1]: ~3 fold | effect on HUVEC cell number relative to untreated control ([2]; 0.625 or 1.25 μM): little or no effect | IC50 ([2]; 3-day MTT): 10.4 µM | IC50 [3]: ~5 µM | growth of colon carcinoma cell line [4]: inhibited the growth | growth of colon carcinoma cell line [5]: inhibited the growth | POC binding, ALK [6]: 78 POC | POC binding, MET [7]: 86 POC | POC binding, PIM2 [8]: 52 POC | POC binding, PKACa [9]: 82 POC | POC binding, PKACb [10]: 89 POC | POC binding, RIOK2 [11]: 23 POC | POC binding, ROCK1 [12]: 79 POC | POC binding, ROS1 [13]: 63 POC | POC binding, CDK7 [14]: 33 % POC
